Assay results reported in patent US8637252B2, “Methods and compositions for determining altered susceptibility of HIV-1 to anti-HIV drugs” (Monogram Biosciences, Inc., priority 2011, dated 2014).
Values joined by “and” are separate entries in the source; they are usually repeats but may differ in a detail not shown here. Identical values can stand only once.

Test system: HIV-1 (patient-derived PR-RT segment)
Test: phenotypic drug resistance test, resistance test vectors with patient-derived PR-RT segment, luciferase, 293 cells
Type: cell-based
From the text: Patient-derived segments corresponding to the HIV protease and reverse transcriptase coding regions (hereinafter “PR-RT) were amplified by the reverse transcription-polymerase chain reaction method (RT-PCR) using viral RNA isolated from viral particles present in the plasma or serum of HIV-infected individuals as follows. Viral RNA was isolated from the plasma or serum using oligo-dT magnetic beads (Dynal Biotech, Oslo, Norway), followed by washing and elution of viral RNA. The RT-PCR protocol was divided into two steps. A retroviral reverse transcriptase (e.g. Moloney MuLV reverse transcriptase (Roche Molecular Systems, Inc., Branchburg, N.J.; Invitrogen, Carlsbad, Calif.), or avian myeloblastosis virus (AMV) reverse transcriptase, (Boehringer Mannheim, Indianapolis, Ind.)) was used to copy viral RNA into cDNA. The cDNA was then amplified using a thermostable DNA polymerase (e.g. Taq (Roche Molecular Systems, Inc., Branchburg, N.J.), Tth (Roche Molecular Systems, Inc., Branchburg, N.J.), PRIMEZYME. (enzyme_isolated from Thermus brockianus, Biometra, Gottingen, Germany)) or a combination of thermostable polymerases as described for the performance of “long PCR” (Barnes, W. M., 1994, Proc. Natl. Acad. Sci, USA 91, 2216-20) (e.g. Expand High Fidelity PCR System (Taq+Pwo), (Boehringer Mannheim. Indianapolis, Ind.); GENEAMP® XL PCR kit (PCR kit using_Tth+Vent), (Roche Molecular Systems, Inc., Branchburg, N.J.); or ADVANTAGE II®, Clontech, Palo Alto, Calif.)
PCR primers were designed to introduce ApaI and PinAl recognition sites into the 5′ or 3′ end of the PCR product, respectively.
Resistance test vectors incorporating the “test” patient-derived segments were constructed as described in U.S. Pat. No. 5,837,464 using an amplified DNA product of 1.5 kB prepared by RT-PCR using viral RNA as a template and oligonucleotides PDS Apa, PDS Age, PDS PCR6, Apa-gen, Apa-c, Apa-f, Age-gen, Age-a, RT-ad, RT-b, RT-c, RT-f, and/or RT-g as primers, followed by digestion with ApaI and Agel or the isoschizomer PinAl. To ensure that the plasmid DNA corresponding to the resultant fitness test vector comprises a representative sample of the HIV viral quasi-species present in the serum of a given patient, many (>250) independent E. coli transformants obtained in the construction of a given fitness test vector were pooled and used for the preparation of plasmid DNA.
A packaging expression vector encoding an amphotrophic MuLV 4070A env gene product enables production in a resistance test vector host cell comprising the vector alone viral particles which can efficiently infect human target cells. Vectors encoding all HIV genes with the exception of env were used to transfect a packaging host cell (once transfected the host cell is referred to as a fitness test vector host cell). The packaging expression vector which encodes the amphotrophic MuLV 4070A env gene product is used with the resistance test vector to enable production in the resistance test vector host cell of infectious pseudotyped resistance test vector viral particles.
Drug resistance tests performed with resistance test vectors were carried out using packaging host and target host cells consisting of the human embryonic kidney cell line 293.
Resistance tests were carried out with resistance test vectors using two host cell types. Resistance test vector viral particles were produced by a first host cell (the resistance test vector host cell) that was prepared by transfecting a packaging host cell with the resistance test vector and the packaging expression vector. The resistance test vector viral particles were then used to infect a second host cell (the target host cell) in which the expression of the indicator gene is measured.
The resistance test vectors containing a functional luciferase gene cassette were constructed as described above and host cells were transfected with the resistance test vector DNA. […]

[1] = Sample 47 (K103K/N, V106V/A, Y181Y/C, G190G/A)
[2] = Sample 58 (K103N, Y181Y/C, G190G/A)
[3] = Sample 62 (K103H, P225P/H, T369T/I)
[4] = Sample 90 (K103K/N, Y181C, G190A)

| Compound | fold change in IC50, PR-RT (Sample 31 (K103N)) [fold] | fold change in IC50, PR-RT (Sample 33 (K103S)) [fold] | fold change in IC50, PR-RT (Sample 34) [fold] | fold change in IC50, PR-RT (Sample 35 (K103H)) [fold] | fold change in IC50, PR-RT (Sample 36 (K103K/W)) [fold] | fold change in IC50, PR-RT (Sample 38 (K103N)) [fold] | fold change in IC50, PR-RT (Sample 39 (T369A)) [fold] | fold change in IC50, PR-RT (Sample 42 (G190G/A)) [fold] | fold change in IC50, PR-RT (Sample 45) [fold] | fold change in IC50, PR-RT [1] [fold] | fold change in IC50, PR-RT (Sample 50 (K103N)) [fold] | fold change in IC50, PR-RT (Sample 51) [fold] | fold change in IC50, PR-RT (Sample 52) [fold] | fold change in IC50, PR-RT [2] [fold] | fold change in IC50, PR-RT [3] | fold change in IC50, PR-RT (Sample 64 (T369T/A)) [fold] | fold change in IC50, PR-RT (Sample 69) [fold] | fold change in IC50, PR-RT (Sample 72) [fold] | fold change in IC50, PR-RT (Sample 80 (K103K/N, Y181Y/C)) [fold] | fold change in IC50, PR-RT (Sample 81 (K103N, P225H)) [fold] | other results |
| --- | --- | --- | --- | --- | --- | --- | --- | --- | --- | --- | --- | --- | --- | --- | --- | --- | --- | --- | --- | --- | --- |
| CC(C)Nc1cccnc1N1CCN(C(=O)c2cc3cc(NS(C)(=O)=O)ccc3[nH]2)CC1 [DLV, delavirdine] | 16.4 | 8.7 | 0.5 | 6.5 | 6.7 | 128.0 | 0.2 | 0.4 | 0.1 | 6.2 | 250.0 | 0.3 | 3.1 | 149.6 | 16.0 fold and 16.00 fold | 1.6 | 1.4 | 0.9 | 65.0 | 12.0 | fold change in IC50, PR-RT (Sample 84): 0.9 fold; fold change in IC50, PR-RT (Sample 85): 25.2 fold; fold change in IC50, PR-RT (Sample 87): 0.7 fold; fold change in IC50, PR-RT (Sample 89 (L1001, K103N)): 250.0 fold; fold change in IC50, PR-RT [4]: 4.1 fold; fold change in IC50, PR-RT (Sample 92): 1.1 fold; fold change in IC50, PR-RT (Sample 93): 0.3 fold |
| O=C1Nc2ccc(Cl)cc2[C@@](C#CC2CC2)(C(F)(F)F)O1 [EFV, efavirenz] | 22.8 | 7.1 | 0.4 | 9.3 | 6.7 | 42.0 | 0.3 | 3.1 | 0.2 | 123.9 | 63.2 | 0.5 | 1.3 | 26.4 | 20 fold and 20.0 fold and 20.00 fold | 1.1 | 0.8 | 0.5 | 11.0 | 98.0 | fold change in IC50, PR-RT (Sample 84): 0.7 fold; fold change in IC50, PR-RT (Sample 85): 22.0 fold; fold change in IC50, PR-RT (Sample 87): 0.9 fold; fold change in IC50, PR-RT (Sample 89 (L1001, K103N)): 700.0 fold; fold change in IC50, PR-RT [4]: 50.5 fold; fold change in IC50, PR-RT (Sample 92): 1.0 fold; fold change in IC50, PR-RT (Sample 93): 0.8 fold |
| Cc1ccnc2c1NC(=O)c1cccnc1N2C1CC1 [NVP, nevirapine] | 88.4 | 23.3 | 0.3 | 25.2 | 13.0 | 114.0 | 0.3 | 34.0 | 0.3 | 400.0 | 153.9 | 0.4 | 2.0 | 400.0 | 64 fold and 64.0 fold and 64.00 fold | 1.0 | 1.0 | 0.7 | 46.0 | 92.0 | fold change in IC50, PR-RT (Sample 84): 0.8 fold; fold change in IC50, PR-RT (Sample 85): 131.7 fold; fold change in IC50, PR-RT (Sample 87): 0.8 fold; fold change in IC50, PR-RT (Sample 89 (L1001, K103N)): 37.0 fold; fold change in IC50, PR-RT [4]: 400.0 fold; fold change in IC50, PR-RT (Sample 92): 1.1 fold; fold change in IC50, PR-RT (Sample 93): 1.6 fold |
